Test results taken from patent publication US20220290111A1, “NUCLEIC ACIDS, PROTEINS AND PROCESSES FOR PRODUCING AMIDES” (Leibniz-Institut für Pflanzenbiochemie, priority 2019, published 2022).

Columns and labels:
Type in all cases: biochemical, Piper nigrum
[1] = system: recombinant PipSyn2; experiment: in vitro enzyme assay of amide formation from CoA-ester and amine, PipSyn2; settings: for relative activity, piperoyl-CoA / relative activity, 3,4-methylenedioxycinnamoyl-CoA / relative activity, myristoyl-CoA / relative activity, hexanoyl-CoA: PipSyn2; for relative activity, piperoyl-CoA: CoA-ester piperoyl-CoA, 100% = 2 nkat/mg PipSyn2 with piperidine, assay as Example 3; for relative activity, piperoyl-CoA / relative activity, 3,4-methylenedioxycinnamoyl-CoA: UV quantification; for relative activity, 3,4-methylenedioxycinnamoyl-CoA: CoA-ester 3,4-methylenedioxycinnamoyl-CoA; for relative activity, 3,4-methylenedioxycinnamoyl-CoA / relative activity, myristoyl-CoA / relative activity, hexanoyl-CoA: 100% = 2 nkat/mg PipSyn2 with piperoyl-CoA and piperidine; for relative activity, myristoyl-CoA: CoA-ester myristoyl-CoA; for relative activity, myristoyl-CoA / relative activity, hexanoyl-CoA: quantification by mass detection; for relative activity, hexanoyl-CoA: CoA-ester hexanoyl-CoA
Method: Enzyme activity test with regard to piperine formation in case of PipSynthase 2.
(§1) A standard enzyme assay contains:
(§2) 10 μl enzyme solution in 30 mM Tris/HCl buffer pH 8.0 (10% glycerol, 1 mM DTT)
(§3) 1 μg-5 μg protein, amount determined according to Bradford
(§4) 10 μl piperidine, 100 mM (in water) 10 μl 5 mM DTT in water 10 μl piperoyl-CoA (PipCoA) 2.5 mM in 25% DMSO/75% water • All reagents (except PipCoA) were mixed in Eppendorf tubes and incubated in a standard (Eppendorf) incubator set at 30° C. Reagents were pre-equilibrated for 1 min to this temperature. • Assay start: addition of 10 μl PipCoA 2.5 mM in 25% DMSO/75% water to a final concentration of 500 μM PipCoA. • Assay stop after 5 min addition of 10 μl stop solution such as 1% formic acid/50% acetonitrile
(§5) Mix by vortex, incubate on ice for 5 minutes and centrifugation for 1 min at 20,000 g to precipitate any debris or insoluble material e.g. residual protein.
(§6) Remove 50 μl of supernatant for analysis of products (amides) by LC-MS. Injected to an RP-HPLC column are 10 μl (out of 50 μl). • Product formation is recorded via UV/PDA (photodiode array) detector and LC-MS and simultaneously. • Identification of piperine was achieved by use of a commercial standard and by LC-MS detection of calculated product masses at m/z 286 and UV-detection at 340 nm. • Quantification of product formation was achieved by a standard graph of piperine from 0.1-100 μM (commercial standard, Sigma) and recorded and calculated intensities of mass (peak area) and/or UV-peak area. • Identification and separation of piperine was according to a corresponding standard and a mass signal of m/z 286.1 in pos. mode and its corresponding absorbance at λmax-340 nm.
(§7) Quantification was performed based on a commercially available piperine standard. The peak area of the peak due to piperine in the LC trace was determined. Peaks due to possible isomerization products of piperine were neglected for the determination of enzyme activity of piperine formation. […] Before calculating enzyme activity in terms of nkat (nmole of piperine formed per second), the amount of non-enzymatically formed piperine is subtracted from the amount determined in the presence of protein.
(§8) Protein amounts were determined photometrically by the Bradford assay of combining a defined volume, preferentially 10 μl of the (partly) purified PipSyn1 and PipSyn2 enzyme and 990 μl of Bradford reagent, and calculating the resulting absorbance at λ=595 nm based on a standard curve made with a serial dilution of commercially available Bovine Serum Albumin fraction V in water.
(§9) This Example provides in Table 1 substrates which were tested for enzyme activity with both enzymes. Activity data were calculated from the UV-(PDA) area in the range of 320-370 nm. The data are supported by LC-MS measurements of corresponding m/z values recorded in positive ionization mode and based on calculated expected masses. Mass accuracy of Waters QDA-detector is +/−0.2 Dalton. Contrary to the procedure of Example 3, for the determination of the activity of the reaction of piperoyl-CoA and piperidine as substrates, the sum of all peaks in the LC trace due to species having calculated m/z values of the expected products was used for quantification of product, assuming the same ionization efficiency in positive ionization mode as in case of piperine for all molecule species.

[2] = system: PipSyn1; experiment: in vitro enzyme assay of amide formation from CoA-ester and amine, PipSyn1; settings: 100% = 2 nkat/mg PipSyn2 with piperoyl-CoA and piperidine, UV quantification; for relative activity, 3,4-methylenedioxycinnamoyl-CoA: CoA-ester 3,4-methylenedioxycinnamoyl-CoA; for relative activity, benzoyl-CoA: CoA-ester benzoyl-CoA; for relative activity, piperoyl-CoA: CoA-ester piperoyl-CoA
Method: Standard assays are routine for a person of average skill in the art.
as §1, §2, §3, §4, §5, §6, §7, §8, §9

[3] = system: PipSyn1; experiment: as above; settings: 100% = 2 nkat/mg PipSyn2 with piperoyl-CoA and piperidine, quantification by mass detection; for relative activity, myristoyl-CoA: CoA-ester myristoyl-CoA; for relative activity, hexanoyl-CoA: CoA-ester hexanoyl-CoA

With NCCCCCCCN [1,7-diaminoheptane] the “relative activity, piperoyl-CoA” value [1] was 2%, the “relative activity, 3,4-methylenedioxycinnamoyl-CoA” value [2] was 104% and the “relative activity, benzoyl-CoA” value [2] was 2%. The “relative activity, piperoyl-CoA” value [2] was 26%.

With NCC1CCNCC1 [4-aminomethylpiperidine] the “relative activity, 3,4-methylenedioxycinnamoyl-CoA” value [1] was 7%, the “relative activity, piperoyl-CoA” value [1] was 36% and the “relative activity, 3,4-methylenedioxycinnamoyl-CoA” value [2] was 6%. The “relative activity, piperoyl-CoA” value [2] was 17%.

For NCCc1ccc(O)c(O)c1 [dopamine], the “relative activity, 3,4-methylenedioxycinnamoyl-CoA” value [2] was 7% and the “relative activity, piperoyl-CoA” value [2] was 2%.

In the case of CC(C)CN [isobutylamine], the “relative activity, 3,4-methylenedioxycinnamoyl-CoA” value [1] is reported as 2%, the “relative activity, myristoyl-CoA” value [1] is reported as 15% and the “relative activity, piperoyl-CoA” value [1] is reported as 16%. For the same molecule, the “relative activity, 3,4-methylenedioxycinnamoyl-CoA” value [2] was 173%, the “relative activity, benzoyl-CoA” value [2] was 6% and the “relative activity, piperoyl-CoA” value [2] was 66%. For the same molecule, the “relative activity, myristoyl-CoA” value [3] was 20%.

With C1CCNCC1 [piperidine] the “relative activity, 3,4-methylenedioxycinnamoyl-CoA” value [1] was 38%, the “relative activity, hexanoyl-CoA” value [1] was 12% and the “relative activity, myristoyl-CoA” value [1] was 10%. The “relative activity, piperoyl-CoA” value [1] was 100%, the “relative activity, 3,4-methylenedioxycinnamoyl-CoA” value [2] was 184% and the “relative activity, benzoyl-CoA” value [2] was 7%. For the same molecule, the “relative activity, piperoyl-CoA” value [2] was 117%, the “relative activity, hexanoyl-CoA” value [3] was 23% and the “relative activity, myristoyl-CoA” value [3] was 10%.

For C1CCNC1 [pyrrolidine], the “relative activity, 3,4-methylenedioxycinnamoyl-CoA” value [1] was 3%, the “relative activity, hexanoyl-CoA” value [1] was 60% and the “relative activity, myristoyl-CoA” value [1] was <1%. For the same molecule, the “relative activity, piperoyl-CoA” value [1] was 34%, the “relative activity, 3,4-methylenedioxycinnamoyl-CoA” value [2] was 186% and the “relative activity, benzoyl-CoA” value [2] was 1%. For the same molecule, the “relative activity, piperoyl-CoA” value [2] was 77%, the “relative activity, hexanoyl-CoA” value [3] was 300% and the “relative activity, myristoyl-CoA” value [3] was 3%.

COc1cc(CN)ccc1O [vanillylamine] was tested, and the “relative activity, hexanoyl-CoA” value [1] was <1%, the “relative activity, 3,4-methylenedioxycinnamoyl-CoA” value [2] was 10% and the “relative activity, piperoyl-CoA” value [2] was 2%. For the same molecule, the “relative activity, hexanoyl-CoA” value [3] was 2%.

B1: PipSyn2: recombinant His-tagged piperine synthase from Piper nigrum, amino acid sequence SEQ ID NO: 4, expressed in E. coli (protein, listed as Piper nigrum)
chain: MAPSSQLEFNVVRKQPELLPPAEPTPFEWKELSDIDDQDGLRLHISGFFIYPPSTMSNVGRDNVARDIRLGLSKAMVFYYPLAGRIREGPNRKLSVECTGEGIMYCEADADVRLEQFGDIGALSMPFPFMDKVMFETVDDGILGTPLMYFQSTRFICGGIVIAGCYNHAIADGLGFYMFMAAAAQLARGAASPTPLPVWQRERLLSRVPPRVTFIHHEYIHDTPKTETANPLDNEPWPLHSIFFTRVDVAALRAQLPGHLRKSATSFEIISACLWRCRTAALRFAPDELSRLIIAVNARTKFGPPLPQGYYGNSIMLPMVVSEAGKLVLSGLGYAVELVIEAKGKVTEEYVKSVADYLVLNGRPHYVVTNTYLVSDLRQLVEMSKFDWGWGKPAYVGPADVGENAISFLATLKNGEEEGVVVPIRLPESAVGRFKSEVSKMVSFGCLEDVKPNRDGYLSRM
modifications: His tag
For B1, the “catalytic activity taken as 100%” value ([1]; recombinant PipSyn2 with piperoyl-CoA and piperidine as substrates) was 2 nkat/mg.
